Results on 11 compounds are retold here after ChEMBL document CHEMBL1201862, “PubChem BioAssay data set” (2004).

Test systems include 786-0; A498; ACHN; COLO 205; HOP-62; K562; MCF7; MDA-MB-435; NCI/ADR-RES; OVCAR-3; RPMI-8226; SK-MEL-2; SNB-75; SR; SW-620; TK-10; U-251; UACC-257; UO-31; MDA-N.
Holding throughout (assay): NCI-60 cell line screen, 48 h

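Step 1: Grow cells in 96-well plates. Step 2: Expose to compound for 48 hours at 5 concentrations. Step 3: Interpolate endpoints linearly; if unreached, use highest concentration. GI50 is the concentration that inhibits growth by half.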 Calls of active or inactive are those of the source. Rule as the data show it: active = GI50 up to about 1.1 µM and inactive = higher. Bounds are passed on as bounds.

In the case of `CC(C)(C)OC(=O)N(CCCCNC(=O)OCc1ccccc1)CCCNC(=O)OCc1ccccc1`, the GI50 with 786-0 is 91 µM (inactive); with A498, 21.8 µM (inactive); in the assay on ACHN, 9.86 µM (inactive); with COLO 205 it was 16.5 µM (inactive); in the assay with HOP-62, > 100 µM (inactive); in the assay with K562, 23.3 µM (inactive). Besides, the GI50 with MCF7 was 33.3 µM (inactive); in the assay on MDA-MB-435, 35.8 µM (inactive); with NCI/ADR-RES, 8.59 µM (inactive); in the assay with OVCAR-3 it was > 100 µM (inactive); with RPMI-8226 it was 12.6 µM (inactive); in the assay on SK-MEL-2 it was 55.7 µM (inactive). The GI50 in the assay on SNB-75 was 51.9 µM (inactive); in the assay with SR it was 9.68 µM (inactive); in the assay with SW-620, 71 µM (inactive); in the assay on TK-10, > 100 µM (inactive); in the assay with U-251, 35.6 µM (inactive); in the assay on UACC-257 it was 26.4 µM (inactive). Besides, the GI50 in the assay on UO-31 was 5.7 µM (inactive).
Take `N=C1N(/N=C/c2ccccn2)/C(=N\c2ccccc2)C(=S)N1c1ccccc1`: the GI50 in the assay with 786-0 was 2.94 µM (inactive); in the assay with A498, 19.4 µM (inactive); in the assay with ACHN, 2.55 µM (inactive); in the assay with COLO 205, 1.42 µM (inactive); in the assay with HOP-62, 10.2 µM (inactive); with K562 it was 3.33 µM (inactive). Besides, the GI50 in the assay with MDA-MB-435 was 5.41 µM (inactive); with MDA-N, 3.56 µM (inactive); with NCI/ADR-RES, 2.83 µM (inactive); in the assay on RPMI-8226, > 100 µM (inactive); in the assay with SK-MEL-2, 2.14 µM (inactive); with SNB-75, 15.3 µM (inactive). Further, the GI50 is > 100 µM (inactive) in the assay with SR; 3.47 µM (inactive) in the assay with SW-620; 11 µM (inactive) in the assay on TK-10; 8.18 µM (inactive) in the assay on U-251; 9.27 µM (inactive) in the assay on UACC-257; 4.37 µM (inactive) in the assay on UO-31.
In the case of `Cc1ccc2nc3c(C)c(Cl)c(=O)cc-3sc2c1`, the GI50 in the assay on 786-0 is 49.7 µM (inactive); in the assay with A498 it was 40.2 µM (inactive); in the assay with ACHN, 18.5 µM (inactive); in the assay with COLO 205 it was 29.9 µM (inactive); in the assay with HOP-62, 27.5 µM (inactive); in the assay with K562, 3.65 µM (inactive). The GI50 in the assay with MCF7 is 17.6 µM (inactive); in the assay on MDA-MB-435, 18.5 µM (inactive); with MDA-N it was 16.9 µM (inactive); with OVCAR-3, 6.97 µM (inactive); in the assay with RPMI-8226, 3.85 µM (inactive); in the assay with SK-MEL-2 it was 17.2 µM (inactive). Moreover, the GI50 is 14.5 µM (inactive) with SNB-75; 5.86 µM (inactive) in the assay with SR; 28.6 µM (inactive) with SW-620; 56.8 µM (inactive) with TK-10; 12.7 µM (inactive) with U-251; 16.6 µM (inactive) in the assay with UACC-257. In addition, in the assay on UO-31, the GI50 is 10.2 µM (inactive).
For the compound `O=C1O[B-](c2ccccc2)(c2ccccc2)[NH+]2CCCC12` (stereo unspecified), the GI50 was 50.7 µM (inactive) in the assay on 786-0; 55.7 µM (inactive) in the assay on A498; 75.7 µM (inactive) in the assay on ACHN; 31.6 µM (inactive) in the assay on COLO 205; > 100 µM (inactive) with HOP-62; 67.6 µM (inactive) with K562. Moreover, the GI50 in the assay with MDA-MB-435 is > 100 µM (inactive); in the assay with MDA-N, 85.1 µM (inactive); in the assay on NCI/ADR-RES, 84.7 µM (inactive); with OVCAR-3, 38.7 µM (inactive); in the assay with RPMI-8226, 72.8 µM (inactive); in the assay on SK-MEL-2 it was 97.7 µM (inactive). The GI50 in the assay with SR was > 100 µM (inactive); in the assay on SW-620, 63.4 µM (inactive); in the assay with TK-10, 44.4 µM (inactive); with U-251 it was > 100 µM (inactive); with UACC-257, 64.9 µM (inactive); in the assay on UO-31 it was 34.6 µM (inactive).
Regarding `COc1ccc(-c2nc3ccccc3s2)cc1OC`, the GI50 with 786-0 was 44.6 µM (inactive); in the assay with ACHN, 40.4 µM (inactive); in the assay on COLO 205, 21.9 µM (inactive); with HOP-62, 67.9 µM (inactive); in the assay on K562, > 100 µM (inactive); in the assay on MDA-MB-435, > 100 µM (inactive). Moreover, the GI50 in the assay on MDA-N was 64.4 µM (inactive); in the assay on NCI/ADR-RES, 42.5 µM (inactive); with RPMI-8226 it was 22.7 µM (inactive); with SK-MEL-2, > 100 µM (inactive); with SNB-75, > 100 µM (inactive); in the assay on SR, > 100 µM (inactive). The GI50 with SW-620 was > 100 µM (inactive); in the assay on U-251, 53.8 µM (inactive); with UACC-257, > 100 µM (inactive); in the assay with UO-31 it was 41.7 µM (inactive).
Turning to `C[N+]1(C)CCCC(C#N)(c2ccccc2)CC1` (stereo unspecified), the GI50 in the assay on 786-0, in the assay on A498, in the assay with ACHN, in the assay with COLO 205, with HOP-62 and in the assay with K562 was > 100 µM (inactive) in each case. Also, the GI50 in the assay on MCF7, in the assay with MDA-N, in the assay with NCI/ADR-RES, in the assay on RPMI-8226, in the assay with SNB-75 and in the assay with SR was > 100 µM (inactive) in each case. For the same compound, the GI50 in the assay on SW-620, with TK-10, in the assay with U-251, in the assay with UACC-257 and in the assay with UO-31 was > 100 µM (inactive) in each case.
As for `O=C(O)CCC(=O)OC1N=C(c2ccccc2Cl)c2cc([N+](=O)[O-])ccc2NC1=O` (stereo unspecified), the GI50 was 42.1 µM (inactive) in the assay with 786-0; > 100 µM (inactive) with A498; 57.8 µM (inactive) in the assay with ACHN; 70.6 µM (inactive) in the assay with HOP-62; 33 µM (inactive) in the assay on MCF7; > 100 µM (inactive) in the assay with MDA-MB-435. For the same compound, the GI50 in the assay on MDA-N was > 100 µM (inactive); in the assay on NCI/ADR-RES, > 100 µM (inactive); in the assay with OVCAR-3 it was 32.7 µM (inactive); in the assay with SK-MEL-2 it was > 100 µM (inactive); with SNB-75 it was 38.1 µM (inactive); in the assay on SW-620, 26.1 µM (inactive). Besides, the GI50 in the assay on TK-10 is 86.7 µM (inactive); in the assay with U-251, 31.5 µM (inactive); in the assay with UACC-257, > 100 µM (inactive); in the assay with UO-31 it was 44.6 µM (inactive).
In the case of `C=C1C(OC2O[C@@H]3O[C@@]4(C)CC[C@H]5[C@H](C)CC[C@@H](C2=C)[C@@]35O4)O[C@@H]2O[C@@]3(C)CC[C@H]4[C@H](C)CC[C@@H]1[C@@]24O3` (stereo partly specified), the GI50 in the assay with 786-0, in the assay on A498, in the assay with ACHN, in the assay with COLO 205, in the assay on HOP-62 and in the assay on K562 was > 50 µM (inactive) each time. The GI50 in the assay on MCF7, in the assay on MDA-MB-435, with MDA-N, in the assay on OVCAR-3, in the assay on RPMI-8226 and in the assay with SK-MEL-2 was > 50 µM (inactive) in each case. Also, the GI50 in the assay on SR, with SW-620, in the assay on TK-10, with U-251, with UACC-257 and in the assay on UO-31 was > 50 µM (inactive) throughout.
Turning to `CC(C)=Cc1cc2c(cc1O)CCC1C2CC[C@@]2(C)C1CC[C@@H]2O` (stereo partly specified), the GI50 is 12.4 µM (inactive) in the assay on 786-0; 16.4 µM (inactive) in the assay with A498; 14 µM (inactive) in the assay on ACHN; 18.4 µM (inactive) with COLO 205; 3.75 µM (inactive) with K562; 14.4 µM (inactive) in the assay on MCF7. The GI50 in the assay on MDA-N is 2.44 µM (inactive); in the assay on NCI/ADR-RES, 7.66 µM (inactive); in the assay on RPMI-8226, 5.14 µM (inactive); with SK-MEL-2 it was 14.8 µM (inactive); in the assay with SNB-75, 3.56 µM (inactive); with SR, 3.18 µM (inactive). The GI50 with SW-620 was 8.53 µM (inactive); in the assay with TK-10 it was 3.16 µM (inactive); in the assay on U-251, 10.4 µM (inactive); in the assay on UACC-257, 14.9 µM (inactive); in the assay on UO-31, 13.3 µM (inactive).
In the case of `CN(C)/C=C/C=C(/C=N/S(=O)(=O)C(F)(F)F)C1C=CN(S(=O)(=O)C(F)(F)F)C=C1`, the GI50 was 45.8 µM (inactive) in the assay on 786-0; 41 µM (inactive) in the assay on A498; 28.8 µM (inactive) in the assay on ACHN; 17.7 µM (inactive) in the assay on COLO 205; 39.4 µM (inactive) with HOP-62; 37.8 µM (inactive) in the assay on K562. The GI50 with MDA-MB-435 is 25.8 µM (inactive); in the assay with MDA-N it was 36.7 µM (inactive); with NCI/ADR-RES, 30.3 µM (inactive); with OVCAR-3, 32.4 µM (inactive); in the assay with RPMI-8226 it was 38.3 µM (inactive); with SK-MEL-2 it was 24.5 µM (inactive). Also, the GI50 with SNB-75 is 16.6 µM (inactive); with SR it was 30.1 µM (inactive); with SW-620, 38.1 µM (inactive); with TK-10 it was 36.6 µM (inactive); in the assay with U-251 it was 37.6 µM (inactive); with UACC-257 it was 23.1 µM (inactive). In addition, the GI50 with UO-31 was 29.1 µM (inactive).
For the compound `CCCCCCCCCCC[N+]1(Cc2ccccc2)CC2CCN(Cc3ccccc3)CC2C1` (stereo unspecified), the GI50 was 1.03 µM (active) in the assay with 786-0; 1.5 µM (inactive) with A498; 1.17 µM (inactive) with ACHN; 1.01 µM (active) in the assay on COLO 205; 0.818 µM (active) in the assay on HOP-62; 0.125 µM (active) in the assay on K562. For the same compound, the GI50 is 0.447 µM (active) with MCF7; 0.233 µM (active) with MDA-N; 5.09 µM (inactive) in the assay with NCI/ADR-RES; 0.371 µM (active) in the assay on OVCAR-3; 0.101 µM (active) in the assay on RPMI-8226; 0.261 µM (active) in the assay with SK-MEL-2. In addition, the GI50 was 1.15 µM (inactive) with SNB-75; 0.0546 µM (active) with SR; 0.381 µM (active) in the assay with SW-620; 1.29 µM (inactive) with TK-10; 0.261 µM (active) in the assay with U-251; 0.288 µM (active) in the assay with UACC-257. Moreover, in the assay on UO-31, the GI50 was 1.3 µM (inactive).
